Reference: patent US20250011365A1, “ECHINOCANDIN-BASED DRUG, AND PREPARATION METHOD THEREFOR AND USE THEREOF” (Shenzhen Sungening Biological Co., Ltd, priority 2023, published 2025)
Converted amounts (≈) assume the structure as drawn. Numbered stars: 1 amine (or outer) side, 2 acyl side, 3 side chain; on linkers, the order of the positions; unused ones are H or OH. Bridge positions count the residues as written; N and C are the ends. Square brackets hold non-standard residues; d marks the D form. Peptide text beside a SMILES is read from it. * marks the point of attachment. Orn(4R-OH,5R-OCH2CH2NMe3+) = C[N+](C)(C)CCO[C@@H](N[*:3])[C@H](O)C[C@H](N[*:1])C(=O)[*:2]; hTyr(3S-OH,4S-OH) = N[C@H](C(=O)O)[C@H](O)[C@@H](O)c1ccc(O)cc1; X2 = CCCCCOc1ccc(C#Cc2ccc3cc(C(=O)*)ccc3c2)c(F)c1F; Pro(3S-OH,4S-Me) = C[C@H]1CN[C@H](C(=O)O)[C@H]1O; Hyp = O=C(O)[C@@H]1C[C@@H](O)CN1

Experiments:
Assay type in all cases: cell-based
[1] = test system: Pichia guilliermondii ATCC 6260; assay: MIC assay, yeast-type fungi (CLSI M27-A3); details: Meyerozyma guilliermondii, ATCC6260, 24 h, 35° C.
Description: (§1) After gradient dilution of test compounds, an MIC assay was performed on a Candida standard strain, and an MEC assay was performed on an Aspergillus standard strain. […] A cryopreserved strain was passaged at least 2 times. A single colony was picked and resuspended in a physiological saline or sterile water tube, and the tube was subjected to vortex shaking. The Candida suspension was adjusted to 0.5 McF (1×10^6-5×10^6 CFU/mL) at a wavelength of 530 nm by using a spectrophotometer. After being diluted 50 times with physiological saline, the Candida suspension was diluted 20 times with 1×RPMI 1640 broth (1×10^3-5×10^3 CFU/mL). 10 μL of the diluted Candida suspension was coated on an SDA plate for colony counting, with a range of about 10-50 single colonies. After a prepared drug sensitive plate was completely dissolved at room temperature, the Candida suspension was added to the 96-well plate by using a multi-channel pipettor at 100 μL/well. At this time, the concentration of Candida in each well should be 0.5×10^3-2.5×10^3 CFU/mL. A yeast-type fungus assay plate was placed in an incubator, and incubated for 24 h at 35° C. and 85% humidity, and then the MIC values were read. For echinocandin-based drugs, Aspergillus was incubated for 21-26 h at 28° C., and then the MEC results were read. Yeast-type fungi: A 96-well plate was attached with a disposable parafilm, shaken for uniformly mixing, and observed with naked eyes by using a plate reader microscope. […] Pictures were taken and saved by using an automated plate reader.

[2] = test system: Candida albicans ATCC 18804; assay: MIC assay, Candida standard strain (CLSI M27-A3); details: ATCC18804, 24 h, 35° C.
Description: as §1

[3] = test system: Candida albicans ATCC 76485; assay: MIC assay, Candida standard strain (CLSI M27-A3); details: ATCC76485, 24 h, 35° C.
Description: as §1

[4] = test system: Candida albicans ATCC 90028; assay: MIC assay, Candida standard strain (CLSI M27-A3); details: ATCC90028, 24 h, 35° C., >50% growth inhibition
Description: as §1

[5] = test system: Candida albicans ATCC MYA-427; assay: MIC assay, Candida standard strain (CLSI M27-A3); details: 24 h, 35° C.
Description: as §1

[6] = test system: C. parapsilosis ATCC 22019; assay: MIC assay, Candida standard strain (CLSI M27-A3); details: Lodderomyces parapsilosis, ATCC22019; C. parapsilosis ATCC 22019 (quality-control strain); 24 h, 35° C.
Description: as §1

C. tropicalis ATCC 750 = assay: MIC assay, Candida standard strain (CLSI M27-A3); details: ATCC750, 24 h, 35° C.
Description: as §1

[7] = test system: Candida albicans ATCC MYA-1023; assay: MIC assay, Candida standard strain (CLSI M27-A3); details: 24 h, 35° C.
Description: as §1

[8] = test system: Candida albicans CICC 1943; assay: MIC assay, Candida standard strain (CLSI M27-A3); details: CICC1943, 24 h, 35° C.
Description: as §1

[9] = test system: Candida albicans ATCC MYA-4788; assay: MIC assay, Candida standard strain (CLSI M27-A3); details: 24 h, 35° C.
Description: as §1

[10] = test system: Candida albicans ATCC 14053; assay: MIC assay, Candida standard strain (CLSI M27-A3); details: ATCC14053, 24 h, 35° C.
Description: as §1

C. krusei ATCC 6258 = assay: MIC assay, Candida standard strain (CLSI M27-A3); details: Pichia kudriavzevii, ATCC6258; C. krusei ATCC 6258 (quality-control strain); 24 h, 35° C.
Description: as §1

[11] = test system: Candida albicans ATCC 90029; assay: MIC assay, Candida standard strain (CLSI M27-A3); details: ATCC90029, 24 h, 35° C.
Description: as §1

[12] = test system: Candida albicans ATCC MYA-574; assay: MIC assay, Candida standard strain (CLSI M27-A3); details: 24 h, 35° C.
Description: as §1

[13] = test system: Candida albicans CMCC 98001; assay: MIC assay, Candida standard strain (CLSI M27-A3); details: CMCC98001, 24 h, 35° C.
Description: as §1

[14] = test system: Candida albicans ATCC 10231; assay: MIC assay, Candida standard strain (CLSI M27-A3); details: ATCC10231, 24 h, 35° C., >50% growth inhibition
Description: as §1

[15] = test system: Candida albicans ATCC 64124; assay: MIC assay, Candida standard strain (CLSI M27-A3); details: ATCC64124, 24 h, 35° C.
Description: as §1

[16] = test system: Candida albicans ATCC MYA-2876; assay: MIC assay, Candida standard strain (CLSI M27-A3); details: 24 h, 35° C.
Description: as §1

C. glabrata ATCC 15126 = assay: MIC assay, Candida standard strain (CLSI M27-A3); details: Nakaseomyces glabratus, ATCC15126, 24 h, 35° C.
Description: as §1

[17] = test system: Cryptococcus neoformans ATCC 208821; assay: MIC assay, yeast-type fungi (CLSI M27-A3); details: ATCC208821, 24 h, 35° C.
[18] = test system: Aspergillus fumigatus ATCC 204305; assay: MEC assay, Aspergillus standard strain (CLSI M38-A2); details: 21-26 h, 28° C.
Description: After gradient dilution of test compounds, an MIC assay was performed on a Candida standard strain, and an MEC assay was performed on an Aspergillus standard strain.
The colonies on the plate were covered with 0.85% physiological saline (1 mL) or sterile water (polysorbate 20 was added to a final concentration of 0.1%-0.01%). […] The resuspension of spore hyphae was transferred to a sterile test tube, and left to stand for 3-5 min to precipitate heavier particles. The homogeneous suspension on the upper layer was transferred to a new sterile test tube, and the tube was capped closely, and subjected to vortex shaking for 15 s (note: the suspension can produce an aerosol when the cap is reopened). The concentration of the suspension was adjusted to an OD value of 0.09-0.13 at 530 nm by using a spectrophotometer. […] Within 2 h after dilution, 100 μL of the diluted suspension was added to each well in a 96-well plate (the concentration of spores in the final drug sensitive plate should be 0.4×10^4-5×10^4 CFU/mL).
In order to accurately determine MEC value, vortex oscillation should not be allowed before reading the plate.

Row | SMILES | MIC [1] [µg/mL] | MIC [2] [µg/mL] | MIC [3] [µg/mL] | MIC [4] [µg/mL] | MIC [5] [µg/mL] | MIC [6] [µg/mL] | MIC (C. tropicalis ATCC 750) [µg/mL] | MIC [7] [µg/mL] | MIC [8] [µg/mL] | MIC [9] [µg/mL] | MIC [10] [µg/mL] | MIC (C. krusei ATCC 6258) [µg/mL] | MIC [11] [µg/mL] | MIC [12] [µg/mL] | MIC [13] [µg/mL] | MIC [14] [µg/mL] | MIC [15] [µg/mL] | MIC [16] [µg/mL] | MIC (C. glabrata ATCC 15126) [µg/mL] | MIC [17] [µg/mL] | also measured
1 | CC[C@H](C)C[C@H](C)CCCCCCCCC(=O)N[C@H]1C[C@@H](O)[C@@H](NCCN)NC(=O)[C@@H]2[C@@H](O)CCN2C(=O)[C@H]([C@H](O)CCN)NC(=O)[C@H]([C@H](O)[C@@H](O)c2ccc(O)cc2)NC(=O)[C@@H]2C[C@@H](O)CN2C(=O)[C@H]([C@@H](C)O)NC1=O [Caspofungin, reference compound] | 0.12 (≈ 0.11 µM) | 0.06 (≈ 0.0549 µM) | 0.06 (≈ 0.0549 µM) | 0.12 (≈ 0.11 µM) | 0.12 (≈ 0.11 µM) | 0.5 (≈ 0.457 µM) | 0.06 (≈ 0.0549 µM) | 0.06 (≈ 0.0549 µM) | 0.06 (≈ 0.0549 µM) | 0.06 (≈ 0.0549 µM) | 0.03 (≈ 0.0274 µM) | 0.25 (≈ 0.229 µM) | 0.06 (≈ 0.0549 µM) | ≤ 0.015 | 0.06 (≈ 0.0549 µM) | 0.12 (≈ 0.11 µM) | 0.12 (≈ 0.11 µM) | 0.06 (≈ 0.0549 µM) | 0.12 (≈ 0.11 µM) | 16 (≈ 14.6 µM) | MEC [18]: 0.25 µg/mL
2 | CCCCCOc1ccc(C#Cc2ccc3cc(C(=O)N[C@H]4C[C@@H](O)[C@@H](OCC[N+](C)(C)C)NC(=O)[C@@H]5[C@@H](O)[C@@H](C)CN5C(=O)[C@H]([C@@H](C)O)NC(=O)[C@H]([C@H](O)[C@@H](O)c5ccc(O)cc5)NC(=O)[C@@H]5C[C@@H](O)CN5C(=O)[C@H]([C@@H](C)O)NC4=O)ccc3c2)c(F)c1F [Example 8] (X2-[Orn(4R-OH,5R-OCH2CH2NMe3+)]T[Hyp][hTyr(3S-OH,4S-OH)]T[Pro(3S-OH,4S-Me)]; lactam 1-C) | 0.25 | ≤ 0.015 | ≤ 0.015 | ≤ 0.015 | 0.03 | 0.5 | ≤ 0.015 | ≤ 0.015 | 0.03 | ≤ 0.015 | ≤ 0.015 | 0.12 | ≤ 0.015 | ≤ 0.015 | ≤ 0.015 | 0.03 | ≤ 0.015 | ≤ 0.015 | 0.06 | 8 | MEC [18]: 0.03 µg/mL
